Assay results from patent US20100120730A1, “6-BENZYL-2,3,4,7-TETRAHYDRO-INDOLO [2,3-C] QUINOLINE COMPOUNDS USEFUL AS PDE5 INHIBITORS” (NYCOMED GmbH, priority 2007, published 2010).
Where a name gives a salt, the structure may show the parent alone.

Target: T1, human PDE5 (Homo sapiens, UniProt O76074)
T1 construct: from tissue; host or cells: human platelets from fresh donor blood (10,000 g supernatant of sonified platelets)
Assay: Inhibition of PDE5 activity (modified SPA test, human platelet lysate)
Format: biochemical
Conditions: PDE5-containing human platelet lysate, 0.5 μM cGMP substrate, 37° C.
Description: As a source for human PDE5, platelets were used. For that purpose, 150 ml fresh blood from human donors anticoagulated with citrate [final concentration 0.3% (w/v)] was centrifuged at 200 g for 10 min to obtain the so-called platelet-rich-plasma (PRP) as a supernatant. 1/10 volume of ACD solution (85 mM Na3-citrate, 111 mM D-glucose, 71 mM citric acid, pH 4.4) was added to 9/10 volume of PRP. After centrifugation (1,400 g, 10 min) the cell pellet was resuspended in 3 ml homogenization buffer (NaCl 140 mM, KCl 3.8 mM, EGTA 1 mM, MgCl2 1 mM, Tris-HCl 20 mM, beta-mercaptoethanol 1 mM, pH 8.2) plus protease-inhibitor mix giving rise to the final concentrations of 0.5 mM Pefablock (Roche), 10 μM Leupeptin, 5 μM Trypsininhibitor, 2 mM Benzamidin and 10 μM Pepstatin A. The suspension was sonified and thereafter centrifuged for 15 min at 10,000 g. The resulting supernatant (platelet lysate) was used for enzymatic testings.
PDE5A1 activity is inhibited by the compounds of the invention in a modified SPA (scintillation proximity assay) test, supplied by Amersham Biosciences (see procedural instructions “phosphodiesterase [3H]cAMP SPA enzyme assay, code TRKQ 7090”), carried out in 96-well microtitre plates (MTP's). The test volume is 100 μl and contains 20 mM Tris buffer (pH 7.4), 0.1 mg of BSA (bovine serum albumin)/ml, 5 mM Mg^2+, 1 μM motapizone, 10 nM PDE2 inhibitor BAY-60-7550, 0.5 μM cGMP (including about 50,000 cpm of [3H]cGMP as a tracer), 1 μl of the respective compound dilution in dimethylsulfoxide (DMSO) and sufficient PDE5-containing platelet lysat (10,000×g supernatant, see above) to ensure that 10-20 wt % of the cGMP is converted under the said experimental conditions. […] After a preincubation of 5 min at 37° C., the reaction was started by adding the substrate (cGMP) and the assay was incubated for a further 15 min; after that, it was stopped by adding SPA beads (50 μl). In accordance with the manufacturer's instructions, the SPA beads had previously been resuspended in water, but were then diluted 1:3 (v/v) in water; the diluted solution also contains 3 mM 8-methoxymethyl-3-isobutyl-1-methylxanthine (IBMX) to ensure a complete PDE activity stop. After the beads have been sedimented (>30 min), the MTP's are analyzed in commercially available luminescence detection devices. The corresponding IC50 values of the compounds for the inhibition of PDE activity are determined from the concentration-effect curves by means of non-linear regression.

Compound | IC50
COc1ccc(Cc2nc3c(c4c2[nH]c2ccccc24)C(=O)CC(C)(C)C3)cc1 [Example 1, 6-(4-Methoxy-benzyl)-3,3-dimethyl-2,3,4,7-tetrahydro-indolo[2,3-c]quinolin-1-one] | 0.00302 µM
COc1ccc(Cc2nc3c(c4c2[nH]c2ccccc24)C(=O)CCC3)cc1 [Example 2, 6-(4-Methoxy-benzyl)-2,3,4,7-tetrahydro-indolo[2,3-c]quinolin-1-one] | 0.00631 µM
O=C1CCCc2nc(Cc3ccccc3)c3[nH]c4ccccc4c3c21 [Example 3, 6-Benzyl-2,3,4,7-tetrahydro-indolo[2,3-c]quinolin-1-one] | 0.0195 µM
CC1(C)CC(=O)c2c(nc(Cc3ccc(Br)cc3)c3[nH]c4ccccc4c23)C1 [Example 5, 6-(4-Bromo-benzyl)-3,3-dimethyl-2,3,4,7-tetrahydro-indolo[2,3-c]quinolin-1-one, HCl salt] | 0.0107 µM
COc1ccc(Cc2nc3c(c4c2[nH]c2ccccc24)CCCC3)cc1 [Example 6, 6-(4-Methoxy-benzyl)-2,3,4,7-tetrahydro-1H-indolo[2,3-c]quinoline, HCl salt] | 0.0126 µM
CC1(C)CC(=O)c2c(nc(Cc3ccc4c(c3)OCO4)c3[nH]c4ccccc4c23)C1 [Example 7, 6-Benzo[1,3]dioxol-5-ylmethyl-3,3-dimethyl-2,3,4,7-tetrahydro-indolo[2,3-c]quinolin-1-one, HCl salt] | 0.00389 µM
CC1(C)CC(=O)c2c(nc(Cc3ccc([N+](=O)[O-])cc3)c3[nH]c4ccccc4c23)C1 [Example 8, 3,3-Dimethyl-6-(4-nitro-benzyl)-2,3,4,7-tetrahydro-indolo[2,3-c]quinolin-1-one, HCl salt] | 0.0813 µM
Brc1ccc(Cc2nc3c(c4c2[nH]c2ccccc24)CCCC3)cc1 [Example 9, 6-(4-Bromo-benzyl)-2,3,4,7-tetrahydro-1H-indolo[2,3-c]quinoline, HCl salt] | 0.0229 µM
COc1cccc(Cc2nc3c(c4c2[nH]c2ccccc24)C(=O)CC(C)(C)C3)c1 [Example 10, 6-(3-Methoxy-benzyl)-3,3-dimethyl-2,3,4,7-tetrahydro-indolo[2,3-c]quinolin-1-one] | 0.0794 µM
CC1(C)CC(=O)c2c(nc(Cc3cccc([N+](=O)[O-])c3)c3[nH]c4ccccc4c23)C1 [Example 13, 3,3-Dimethyl-6-(3-nitro-benzyl)-2,3,4,7-tetrahydro-indolo[2,3-c]quinolin-1-one] | 0.135 µM
O=C1CCCc2nc(Cc3cccc([N+](=O)[O-])c3)c3[nH]c4ccccc4c3c21 [Example 19, 6-(3-Nitro-benzyl)-2,3,4,7-tetrahydro-indolo[2,3-c]quinolin-1-one] | 0.288 µM
CC1(C)CC(=O)c2c(nc(Cc3ccc(O)cc3)c3[nH]c4ccccc4c23)C1 [Example 39, 6-(4-Hydroxy-benzyl)-3,3-dimethyl-2,3,4,7-tetrahydro-indolo[2,3-c]quinolin-1-one] | 0.00191 µM
Nc1ccc(Cc2nc3c(c4c2[nH]c2ccccc24)C(=O)CCC3)cc1 [Example 42, 6-(4-Amino-benzyl)-2,3,4,7-tetrahydro-indolo[2,3-c]quinolin-1-one] | 0.0257 µM
Nc1cccc(Cc2nc3c(c4c2[nH]c2ccccc24)C(=O)CCC3)c1 [Example 43, 6-(3-Amino-benzyl)-2,3,4,7-tetrahydro-indolo[2,3-c]quinolin-1-one] | 0.0115 µM
CCC(=O)Nc1ccc(Cc2nc3c(c4c2[nH]c2ccccc24)C(=O)CC(C)(C)C3)cc1 [Example 45, N-[4-(3,3-Dimethyl-1-oxo-2,3,4,7-tetrahydro-1H-indolo[2,3-c]quinolin-6-ylmethyl)-phenyl]-propionamide] | 0.0347 µM
CC(=O)Nc1ccc(Cc2nc3c(c4c2[nH]c2ccccc24)C(=O)CCC3)cc1 [Example 46, N-[4-(1-Oxo-2,3,4,7-tetrahydro-1H-indolo[2,3-c]quinolin-6-ylmethyl)-phenyl]-acetamide] | 0.0676 µM
CC1(C)Cc2nc(Cc3ccc4c(c3)OCO4)c3[nH]c4ccccc4c3c2C(O)C1 (stereo not drawn) [Example 59, 6-Benzo[1,3]dioxol-5-ylmethyl-3,3-dimethyl-2,3,4,7-tetrahydro-1H-indolo[2,3-c]quinolin-1-ol] | 0.00269 µM
COc1ccc(Cc2nc3c(c4c2[nH]c2ccccc24)C(O)CC(C)(C)C3)c(F)c1 (stereo not drawn) [Example 65, 6-(2-Fluoro-4-methoxy-benzyl)-3,3-dimethyl-2,3,4,7-tetrahydro-1H-indolo[2,3-c]quinolin-1-ol] | 0.00112 µM
COc1ccc(Cc2nc3c(c4c2[nH]c2ccccc24)C(O)CC(C)(C)C3)cc1F (stereo not drawn) [Example 68, 6-(3-Fluoro-4-methoxy-benzyl)-3,3-dimethyl-2,3,4,7-tetrahydro-1H-indolo[2,3-c]quinolin-1-ol] | 0.00158 µM
Nc1cccc(Cc2nc3c(c4c2[nH]c2ccccc24)C(O)CCC3)c1 (stereo not drawn) [Example 72, 6-(3-Amino-benzyl)-2,3,4,7-tetrahydro-1H-indolo[2,3-c]quinolin-1-ol] | 0.049 µM
CC1(C)CC(=O)c2c(nc(Cc3ccc(NC(N)=O)cc3)c3[nH]c4ccccc4c23)C1 [Example 75, [4-(3,3-Dimethyl-1-oxo-2,3,4,7-tetrahydro-1H-indolo[2,3-c]quinolin-6-ylmethyl)-phenyl]-urea] | 0.0105 µM

System: not given
Assay: not given
Conditions: not given

Compound | melting point
CC1(C)CC(=O)c2c(nc(Cc3ccc(Br)cc3)c3[nH]c4ccccc4c23)C1 (as salt: HCl) [Example 5, 6-(4-Bromo-benzyl)-3,3-dimethyl-2,3,4,7-tetrahydro-indolo[2,3-c]quinolin-1-one, HCl salt] | 244 to 245 °C
CC1(C)CC(=O)c2c(nc(Cc3ccc([N+](=O)[O-])cc3)c3[nH]c4ccccc4c23)C1 (as salt: HCl) [Example 8, 3,3-Dimethyl-6-(4-nitro-benzyl)-2,3,4,7-tetrahydro-indolo[2,3-c]quinolin-1-one, HCl salt] | 214 to 215 °C
Brc1ccc(Cc2nc3c(c4c2[nH]c2ccccc24)CCCC3)cc1 (as salt: HCl) [Example 9, 6-(4-Bromo-benzyl)-2,3,4,7-tetrahydro-1H-indolo[2,3-c]quinoline, HCl salt] | 311 to 312 °C
CC1(C)Cc2nc(Cc3ccc4c(c3)OCO4)c3[nH]c4ccccc4c3c2C(O)C1 (stereo not drawn) (as salt: HCl) [Example 59, 6-Benzo[1,3]dioxol-5-ylmethyl-3,3-dimethyl-2,3,4,7-tetrahydro-1H-indolo[2,3-c]quinolin-1-ol] | 114 to 119 °C
COc1ccc(Cc2nc3c(c4c2[nH]c2ccccc24)C(=O)CCC3)cc1 [Example 2, 6-(4-Methoxy-benzyl)-2,3,4,7-tetrahydro-indolo[2,3-c]quinolin-1-one] | 177 °C
O=C1CCCc2nc(Cc3ccccc3)c3[nH]c4ccccc4c3c21 [Example 3, 6-Benzyl-2,3,4,7-tetrahydro-indolo[2,3-c]quinolin-1-one] | 205 °C
CC1(C)CC(=O)c2c(nc(Cc3ccc([N+](=O)[O-])cc3)c3[nH]c4ccccc4c23)C1 [Example 16, 3,3-Dimethyl-6-(4-nitro-benzyl)-2,3,4,7-tetrahydro-indolo[2,3-c]quinolin-1-one] | 164 to 166 °C
CC1(C)Cc2nc(Cc3ccc(O)c(F)c3)c3[nH]c4ccccc4c3c2[C@H](O)C1 [Example 87, (R)-6-(3-Fluoro-4-hydroxy-benzyl)-3,3-dimethyl-2,3,4,7-tetrahydro-1H-indolo[2,3-c]quinolin-1-ol] | 232 to 234 °C
CC1(C)Cc2nc(Cc3ccc(O)c(F)c3)c3[nH]c4ccccc4c3c2[C@@H](O)C1 [Example 88, (S)-6-(3-Fluoro-4-hydroxy-benzyl)-3,3-dimethyl-2,3,4,7-tetrahydro-1H-indolo[2,3-c]quinolin-1-ol] | 233 to 234 °C
COc1c(F)cc(Cc2nc3c(c4c2[nH]c2ccccc24)[C@@H](O)CC(C)(C)C3)cc1F [Example 89, (S)-6-(3,5-Difluoro-4-methoxy-benzyl)-3,3-dimethyl-2,3,4,7-tetrahydro-1H-indolo[2,3-c]quinolin-1-ol] | 161 to 162 °C
COc1c(F)cc(Cc2nc3c(c4c2[nH]c2ccccc24)[C@H](O)CC(C)(C)C3)cc1F [Example 90, (R)-6-(3,5-Difluoro-4-methoxy-benzyl)-3,3-dimethyl-2,3,4,7-tetrahydro-1H-indolo[2,3-c]quinolin-1-ol] | 161 to 162 °C
COc1ccc(Cc2nc3c(c4c2[nH]c2ccccc24)[C@@H](OC(=O)[C@@H]2CCC(=O)N2)CC(C)(C)C3)cc1F [Example 98, (S)-6-(3-Fluoro-4-methoxy-benzyl)-3,3-dimethyl-2,3,4,7-tetrahydro-1H-indolo[2,3-c]quinolin-1-ol pyroglutamate] | 185 to 187 °C
